The values that follow come from article PMC8955307, “Nucleobase-Derived Nitrones: Synthesis and Antioxidant and Neuroprotective Activities in an In Vitro Model of Ischemia–Reperfusion” (International Journal of Molecular Sciences, 2022).

Series [1] relates to human neuroblastoma SH-SY5Y cells. The series can be described thus: Superoxide radical production (DHE fluorescence) after OGD and 3 h OGR (IR). To be noted: OGD + 3 h OGR (IR); for EC50: compounds 0.1 to 1000 μM, read-out: Antioxidant Activity EC50 ± SEM (superoxide production); for Emax: read-out: Maximal Activity mean±SEM (antioxidant). It is filed as cell-based. As to the method:
A density of 2–2.5 × 10^5 SHSY5Y cells/well was used to seed in 48-well plates to quantify superioxide anion formation. Firstly, cultured cells were exposed to OGD treatment for 3–4 h or maintained in normoxic conditions (controls). Thereafter, medium was replaced with oxygenated Dulbecco’s: Ham’s F12 medium with glucose, 1% Antibiotic-Antimycotic, 1% Gentamicin and 10% FCS. Cells were incubated in the absence (controls) or presence of indicated concentrations of the compounds of study, at 37 °C for 3 h. […] For every condition, the linear regression of fluorescence data (expressed in arbitrary fluorescence units, AFU) was calculated, and the slopes (a) of the best fitting lines (y = ax) were considered as an index of superoxide production, as described previously.

A short description of series [2]: Inhibition of lipid peroxidation (ILPO), AAPH protocol with sodium linoleate. To be noted: tested at 100 µM. Here is the method: The reactants consisting of 10 µL (16 mM) sodium linoleate, 10 µL of the tested nitrones in DMSO (final concentration 100 µM), 50 µL of AAPH ([…]) as a free radical initiator, 930 µL phosphate buffer pH 7.4 (0.05 M) at 37 °C under air, were mixed and the reaction’s result (as absorbance value) was recorded at 234 nm in comparison to PBN as a reference.

Series [3] in a line: Hydroxyl radical scavenging (competition with DMSO). To be noted: tested at 100 µM. As to the method: The competition of the tested nitrones (100 µM) with DMSO (33 mM) in the phosphate buffer (50 mM), pH 7.4, was used. The hydroxyl radicals were generated by the Fe^3+/ascorbic acid system (EDTA 0.1 mM, Fe^3+ 167 µM, ascorbic acid 10 mM), and the samples were incubated at 37 °C/30 min. A 17% w/v solution of CCl3CO2H was used to stop the radical propagation. The percentage scavenging activity was compared to Trolox used as a reference.

A short description of series [4]: Reducing ability: interaction with DPPH. To be noted: tested at 100 µM. (In general: The DPPH test is a chemical assay of radical scavenging.)
The subject of series [5] is human neuroblastoma SH-SY5Y cells. Briefly: Basal neurotoxicity: cell viability under basal conditions. In kind it is cell-based. Here is the method:
Cell viability measurements were carried out in human neuroblastoma cells SHSY5Y using 96-well culture plates, containing about 0.5–1 × 10^5 cells/well, after the OGD-R24h or control treatment including 0.01–1000 µM of the different testing compounds (nitrones 9a–g, PBN, and NAC), utilizing the Cell Proliferation Kit II (XTT), Sigma Aldrich, Madrid, Spain, which determines the culture’s metabolic capacity, as described in [21, 22]. XTT solution (0.3 mg/mL final concentration) was added to the seeded cells, incubated for 2 h at 37 °C with 5% CO2 and 95% air (v/v), and a spectrophotometer reader (Biotek Power-Wave XS microplate-reader (BioTek Instruments, Madrid, Spain) was used to register the absorbance at 450 nm (reference 650 nm) of the soluble formazan product generated. 100% viability was set by control normoxic cells treated with medium only, and control cells were added 0.001–1% DMSO in every assay.

Where two headings read alike, the source gives them in different places.

The EC50 is the concentration needed to bring the measured effect to its halfway point. What is called melting point is the temperature of the solid-liquid transition. Regarding `Cc1cn(C/C=[N+](/C)[O-])c(=O)[nH]c1=O` [9b], the melting point is 182 °C (dec.). For the same compound, in series [1] (Homo sapiens), the EC50 was found to be 0.72 ± 0.16 µM and the Emax worked out at 100 ± 2.26%. In series [2], the “ILPO (%)” value is 55%. Besides, in series [3], the “OH (%) scavenging” value is 73%. For the same compound, the “DPPH (%)” value in series [4] was 11%.

Regarding `C/[N+]([O-])=C/Cn1cc(Br)c(=O)[nH]c1=O` [9d], the melting point was 180 °C (dec.). For the same compound, in series [1] (Homo sapiens), the EC50 came to 46.4 ± 9.49 µM and the Emax was determined as 114 ± 7.72%. In addition, the “OH (%) scavenging” value in series [3] is 90%. In addition, the “DPPH (%)” value in series [4] turned out to be 6%.

For the compound `C/[N+]([O-])=C/Cn1cc(Cl)c(=O)[nH]c1=O` [9e], the melting point is 180 °C (dec.). Besides, in series [1] (Homo sapiens), the EC50 was determined as 12.9 ± 1.43 µM and the Emax stood at 89.3 ± 5.33%. For the same compound, the “ILPO (%)” value in series [2] amounted to 68%. In addition, the “OH (%) scavenging” value in series [3] came to 87%. Moreover, the “DPPH (%)” value in series [4] worked out at 13%.

As for `C/[N+]([O-])=C/Cn1cnc2c(N)ncnc21` [9f], the melting point was 211 °C (dec.). Also, in series [1] (Homo sapiens), the EC50 turned out to be 1.4 ± 0.66 µM and the Emax is 106 ± 9.39%. The “OH (%) scavenging” value in series [3] was 66%. Further, the “DPPH (%)” value in series [4] was found to be 9%.

On to `C/[N+]([O-])=C/Cn1cc(Br)c(=O)n(C/C=[N+](/C)[O-])c1=O` [9i], for which, in series [1] (Homo sapiens), the EC50 was determined as 1.12 ± 0.13 µM and the Emax was found to be 107 ± 2.72%. For the same compound, the “ILPO (%)” value in series [2] was found to be 71%. Also, in series [3], the “OH (%) scavenging” value was “inactive and No”. Besides, the “DPPH (%)” value in series [4] stood at 76%.

As for `CC(C)(C)[N+]([O-])=Cc1ccccc1` [PBN, α-phenyl-N-tert-butylnitrone, reference compound], in series [1], the “Maximal Activity mean±SEM (antioxidant)” value is reported as 93.57±2.94% and the EC50 is 5.86 ± 0.63 µM. Moreover, the “ILPO (%)” value in series [2] is 11%. In addition, the “OH (%) scavenging” value in series [3] was “no”. The “Neurotoxic effects at basal level (cell viability)” value in series [5] is listed as “did not show any neurotoxic effects”.
